Each structure is given as a SMILES string. ≈ marks a conversion by molar mass, not a printed value. Calls of active or inactive are those of the source. No cut-off for these calls is given here. Where only a bound is given, the exact number is not on record here.

The MIC is the least concentration at which growth counts as inhibited. As usually defined, the IC50 is the concentration that gives 50% inhibition.

One assay concerns Pseudomonas aeruginosa. As to the kind of experiment: Antibacterial activity against Pseudomonas aeruginosa MTCC 1688 assessed as growth inhibition after 24 hrs by broth dilution assay. Format: functional. The following applies: MTCC 1688, 24 h.
The next assay concerns Escherichia coli. As to the kind of experiment: Antibacterial activity against Escherichia coli MTCC 443 assessed as growth inhibition after 24 hrs by broth dilution assay. The settings on record: MTCC 443, 24 h. Format: functional. A general note: In broth dilution the organism is exposed to a series of concentrations in liquid medium.
Another assay concerns Streptococcus pyogenes. The experiment in a line: Antibacterial activity against Streptococcus pyogenes MTCC 442 assessed as growth inhibition after 24 hrs by broth dilution assay. The following applies: MTCC 442, 24 h. It counts as functional.
Assay [1] deals with Aspergillus clavatus. As to the kind of experiment: Antifungal activity against Aspergillus clavatus assessed as growth inhibition after 48 hrs by broth dilution assay. Format: functional.
In assay [2] the test system is Candida albicans. The experiment in a line: Antifungal activity against Candida albicans assessed as growth inhibition after 48 hrs by broth dilution assay. It counts as functional.
The test system of the next assay is Staphylococcus aureus. As to the kind of experiment: Antibacterial activity against Staphylococcus aureus MTCC 96 assessed as growth inhibition after 24 hrs by broth dilution assay. Format: functional. The following applies: MTCC 96, 24 h.
In the next assay the test system is HeLa. As to the kind of experiment: Cytotoxicity against human HeLa cells assessed as growth inhibition after 24 to 72 hrs by MTT assay. Format: cell-based. A general note: Tetrazolium assays rely on reduction of a dye to a coloured formazan, in cell work by metabolically active cells.
Assay [3] concerns Aspergillus niger. The experiment in a line: Antifungal activity against Aspergillus niger assessed as growth inhibition after 48 hrs by broth dilution assay. It counts as functional.
Assay [4] relates to Aspergillus niger. As to the kind of experiment: Antifungal activity against Aspergillus niger assessed as growth inhibition at 12.5 to 1000 ug/mL after 48 hrs by broth dilution assay. It counts as functional, organism-based.
Assay [5] concerns Candida albicans. As to the kind of experiment: Antifungal activity against Candida albicans assessed as growth inhibition at 12.5 to 1000 ug/mL after 48 hrs by broth dilution assay. It counts as functional, organism-based.
The subject of assay [6] is Aspergillus clavatus. The experiment in a line: Antifungal activity against Aspergillus clavatus assessed as growth inhibition at 12.5 to 1000 ug/mL after 48 hrs by broth dilution assay. It counts as functional, organism-based.

With `N#Cc1c(-c2cccc(Cl)c2)cc(-c2nc3ccccc3[nH]2)nc1N1C(=O)C(Cl)C1c1ccccc1` (stereo unspecified), the MIC in the assay with Pseudomonas aeruginosa worked out at 25 µg/mL (≈ 49 µM); with Escherichia coli, 50 µg/mL (≈ 98 µM); with Streptococcus pyogenes, 50 µg/mL (≈ 98 µM); in the assay on Aspergillus clavatus [1] it was 50 µg/mL (≈ 98 µM); with Candida albicans [2], 50 µg/mL (≈ 98 µM); in the assay on Staphylococcus aureus, 25 µg/mL (≈ 49 µM). Besides, the MIC in the assay with Aspergillus niger [3] was determined as 25 µg/mL (≈ 49 µM). Moreover, the IC50 with HeLa was over 100 µM.
As for `N#Cc1c(-c2cccc([N+](=O)[O-])c2)cc(-c2nc3ccccc3[nH]2)nc1N1C(=O)C(Cl)C1c1ccccc1` (stereo unspecified), the MIC with Pseudomonas aeruginosa amounted to 50 µg/mL (≈ 96 µM); in the assay with Escherichia coli it was 50 µg/mL (≈ 96 µM); in the assay on Streptococcus pyogenes, 50 µg/mL (≈ 96 µM); in the assay with Aspergillus clavatus [1] it was 50 µg/mL (≈ 96 µM); in the assay with Candida albicans [2], 50 µg/mL (≈ 96 µM); in the assay with Staphylococcus aureus, 25 µg/mL (≈ 48 µM). Further, the MIC in the assay with Aspergillus niger [3] came to 50 µg/mL (≈ 96 µM). Moreover, the IC50 in the assay on HeLa is over 100 µM.
As for `COc1ccc(-c2cc(-c3nc4ccccc4[nH]3)nc(N3C(=O)C(Cl)C3c3ccccc3)c2C#N)cc1` (stereo unspecified), the MIC was determined as 250 µg/mL (≈ 494 µM) with Pseudomonas aeruginosa; 100 µg/mL (≈ 198 µM) in the assay with Escherichia coli; 250 µg/mL (≈ 494 µM) with Streptococcus pyogenes; 500 µg/mL (≈ 988 µM) in the assay on Aspergillus clavatus [1]; 1000 µg/mL (≈ 1980 µM) in the assay with Candida albicans [2]; 500 µg/mL (≈ 988 µM) in the assay with Staphylococcus aureus. In addition, the MIC in the assay with Aspergillus niger [3] came to 500 µg/mL (≈ 988 µM). Moreover, in the assay on HeLa, the IC50 worked out at 58.2 µM.
Turning to `N#Cc1c(-c2cccc(O)c2)cc(-c2nc3ccccc3[nH]2)nc1N1C(=O)C(Cl)C1c1ccccc1` (stereo unspecified), the MIC was found to be 500 µg/mL (≈ 1020 µM) with Pseudomonas aeruginosa; 500 µg/mL (≈ 1020 µM) in the assay on Escherichia coli; 500 µg/mL (≈ 1020 µM) with Streptococcus pyogenes; 250 µg/mL (≈ 508 µM) in the assay on Aspergillus clavatus [1]; 250 µg/mL (≈ 508 µM) in the assay on Candida albicans [2]; 500 µg/mL (≈ 1020 µM) with Staphylococcus aureus. For the same compound, the MIC in the assay with Aspergillus niger [3] came out at 500 µg/mL (≈ 1020 µM). Besides, the IC50 in the assay with HeLa was 86.5 µM.
Consider `N#Cc1c(-c2ccc([N+](=O)[O-])cc2)cc(-c2nc3ccccc3[nH]2)nc1N`, for which the MIC in the assay on Pseudomonas aeruginosa, in the assay on Streptococcus pyogenes and in the assay with Staphylococcus aureus was at least 1000 µg/mL throughout.
Regarding `Cc1ccc(-c2cc(-c3nc4ccccc4[nH]3)nc(N3C(=O)C(Cl)C3c3ccccc3)c2C#N)cc1` (stereo unspecified), the MIC came out at 500 µg/mL (≈ 1020 µM) with Pseudomonas aeruginosa; 100 µg/mL (≈ 204 µM) in the assay on Escherichia coli; 500 µg/mL (≈ 1020 µM) in the assay with Streptococcus pyogenes; 500 µg/mL (≈ 1020 µM) in the assay on Aspergillus clavatus [1]; 500 µg/mL (≈ 1020 µM) in the assay on Candida albicans [2]; 250 µg/mL (≈ 510 µM) with Staphylococcus aureus. The MIC with Aspergillus niger [3] turned out to be 500 µg/mL (≈ 1020 µM). Further, the half-inhibitory concentration (IC50) with HeLa stood at 74.5 µM.
As to `N#Cc1c(-c2cccc(Cl)c2)cc(-c2nc3ccccc3[nH]2)nc1/N=C/c1ccccc1`, the MIC in the assay with Pseudomonas aeruginosa and in the assay on Streptococcus pyogenes was 1000 µg/mL (≈ 2300 µM) throughout. Further, the “growth inhibition (GI)” value in the assay with Aspergillus niger [4], in the assay with Candida albicans [5] and in the assay with Aspergillus clavatus [6] was “inactive” throughout.
For `N#Cc1c(-c2ccc(Cl)cc2)cc(-c2nc3ccccc3[nH]2)nc1/N=C/c1ccccc1`, the MIC with Pseudomonas aeruginosa and in the assay with Streptococcus pyogenes was 1000 µg/mL (≈ 2300 µM) each time.
As for `N#Cc1c(-c2cccc([N+](=O)[O-])c2)cc(-c2nc3ccccc3[nH]2)nc1/N=C/c1ccccc1`, the minimal inhibitory concentration (MIC) with Pseudomonas aeruginosa and in the assay with Streptococcus pyogenes was 1000 µg/mL (≈ 2250 µM) each time. Moreover, the “growth inhibition (GI)” value with Aspergillus niger [4], in the assay on Candida albicans [5] and with Aspergillus clavatus [6] was “inactive” throughout.
For `COc1cccc(-c2cc(-c3nc4ccccc4[nH]3)nc(N3C(=O)C(Cl)C3c3ccccc3)c2C#N)c1` (stereo unspecified), the minimum inhibitory concentration (MIC) with Pseudomonas aeruginosa was determined as 500 µg/mL (≈ 988 µM); with Escherichia coli, 250 µg/mL (≈ 494 µM); in the assay on Streptococcus pyogenes, 500 µg/mL (≈ 988 µM); with Aspergillus clavatus [1] it was 250 µg/mL (≈ 494 µM); in the assay on Candida albicans [2], 500 µg/mL (≈ 988 µM); with Staphylococcus aureus, 500 µg/mL (≈ 988 µM). The minimum inhibitory concentration (MIC) in the assay on Aspergillus niger [3] worked out at 500 µg/mL (≈ 988 µM). In addition, the IC50 in the assay on HeLa is 64 µM.
Take `Cc1cccc(-c2cc(-c3nc4ccccc4[nH]3)nc(N3C(=O)C(Cl)C3c3ccccc3)c2C#N)c1` (stereo unspecified): the MIC in the assay on Pseudomonas aeruginosa turned out to be 500 µg/mL (≈ 1020 µM); with Escherichia coli, 500 µg/mL (≈ 1020 µM); in the assay with Streptococcus pyogenes, 250 µg/mL (≈ 510 µM); with Aspergillus clavatus [1], 500 µg/mL (≈ 1020 µM); with Candida albicans [2], 500 µg/mL (≈ 1020 µM); in the assay on Staphylococcus aureus it was 250 µg/mL (≈ 510 µM). Moreover, in the assay on Aspergillus niger [3], the MIC was 250 µg/mL (≈ 510 µM). Moreover, in the assay on HeLa, the IC50 came to 78.2 µM.
Consider `CC(=O)N1CCN(c2ccc(OCC3COC(Cn4ccnc4)(c4ccc(Cl)cc4Cl)O3)cc2)CC1` (stereo unspecified) [KETOCONAZOLE], for which the MIC with Aspergillus clavatus [1], with Candida albicans [2] and in the assay with Aspergillus niger [3] was 50 µg/mL (≈ 94.1 µM) in each case.
As for `Cc1ccccc1-c1cc(-c2nc3ccccc3[nH]2)nc(N2C(=O)C(Cl)C2c2ccccc2)c1C#N` (stereo unspecified), the MIC in the assay with Pseudomonas aeruginosa stood at 1000 µg/mL (≈ 2040 µM); with Escherichia coli, 250 µg/mL (≈ 510 µM); in the assay on Streptococcus pyogenes, 500 µg/mL (≈ 1020 µM); in the assay with Aspergillus clavatus [1] it was 500 µg/mL (≈ 1020 µM); with Candida albicans [2], 500 µg/mL (≈ 1020 µM); in the assay with Staphylococcus aureus, 500 µg/mL (≈ 1020 µM). Besides, the minimum inhibitory concentration (MIC) in the assay with Aspergillus niger [3] was found to be 1000 µg/mL (≈ 2040 µM). For the same compound, the IC50 with HeLa came to 66 µM.
Consider `O=C(N[C@H](CO)[C@H](O)c1ccc([N+](=O)[O-])cc1)C(Cl)Cl` [CHLORAMPHENICOL], for which the MIC in the assay on Pseudomonas aeruginosa, with Escherichia coli, in the assay with Streptococcus pyogenes and with Staphylococcus aureus was 50 µg/mL (≈ 155 µM) in each case.

Source of the values: ChEMBL document CHEMBL2429780, “Synthesis, antimicrobial and cytotoxic activity of 2-azetidinone derivatives of pyridyl benzimidazoles” (Med Chem Res, 2013).
